Key:
human CYP3A4 = human CYP3A4 (Homo sapiens, UniProt P08684); assay: Metapristone metabolism by cDNA-expressed recombinant human CYP3A4; details: 9 µM
Protocol: The reactions of the control groups with control rat liver microsomes (heated to 80 °C for 5 min to inactivate enzymes) to inactivate enzymes or without NADPH were also included. […] The cDNA-expressed recombinant human CYPs were prepared from insect cells transfected with cDNAs encoding for human CYP1A2 or CYP3A4. […] Each reaction was then started by the addition of metapristone (9 µM) with subsequent mixing of each sample by inversion. […] Metapristone were identified by the LC/MS/MS method. Peak areas formed were used for quantitative analyses. Control incubation mixtures included mixtures without inhibitors, and mixtures with untransfected insect cell microsomes used as microsomal control, and mixtures that contained methanol instead of inhibitor (methanol control). Quantitative analyses were performed by comparing the peak areas of the inhibition reactions to their respective methanol controls. The total organic solvent content of the in vitro reaction mixtures was less than 2%.

CYP3A4 = assay: Western blotting of rat liver CYP3A4 after 7-day oral metapristone; assay type: in vivo
Protocol: To further confirm CYP1A2 and CYP3A4 are the primary CYP isoforms that metabolize metapristone, we administered oral metapristone (22.5 and 45 mg/kg/day for 7 days) to male and female rats, respectively, and measured the activity of liver CYP1A2 and CYP3A4 by using the western blotting assay. We selected western blot staining density from the controls as the basis (100%) to compare changes in CYP1A2 and CYP3A4 activity after metapristone treatment.
The total microsomal protein was extracted from rat livers prepared by diluting liver microsomal suspension with 1 volume of immunoprecipitation assay lysis buffer (150 mM NaCl, 1% NP-40, 0.5% sodium deoxy-cholic acid, 0.1% SDS, and 50 mM Tris-Cl, pH 7.5) for 15 min and then centrifuged at 13,000 rpm 4 °C for 10 min. Aliquots containing 20 µg of protein were separated by SDS-PAGE on a 10% gradient gel (Invitrogen, USA) and transferred to a PVDF membrane that was blocked with 5% non-fat dry milk in Tris-buffered saline with Tween 20 (200 mM Tris–HCl, 1.37 M NaCl, 0.1% Tween 20, pH 7.6) for 1 h. The membrane was then incubated with rabbit anti-rat CYP1A2 polyclonal antibody (1:2000 dilution), rabbit anti-rat CYP3A4 polyclonal antibody (1:1000 dilution) and glyceraldehyde-3-phosphate dehydrogenase (GAPDH) antibody (1:2000 dilution), overnight at 4 °C. After rinsing five times with buffer TBST at room temperature, the membrane was incubated with horseradish peroxidase (HRP)-labeled anti-rabbit immunoglobulin G (IgG) anti-body (Santa Cruz Biotechnology, USA). The immunoreactive bands were visualized using an enhanced chemiluminescence detection system (ChemiDoc™XRS + , Bio-Rad, Hercules, CA, USA) and quantified by using densitometry Image J 1.41 software.

Chain of human CYP3A4 (P08684 whole entry): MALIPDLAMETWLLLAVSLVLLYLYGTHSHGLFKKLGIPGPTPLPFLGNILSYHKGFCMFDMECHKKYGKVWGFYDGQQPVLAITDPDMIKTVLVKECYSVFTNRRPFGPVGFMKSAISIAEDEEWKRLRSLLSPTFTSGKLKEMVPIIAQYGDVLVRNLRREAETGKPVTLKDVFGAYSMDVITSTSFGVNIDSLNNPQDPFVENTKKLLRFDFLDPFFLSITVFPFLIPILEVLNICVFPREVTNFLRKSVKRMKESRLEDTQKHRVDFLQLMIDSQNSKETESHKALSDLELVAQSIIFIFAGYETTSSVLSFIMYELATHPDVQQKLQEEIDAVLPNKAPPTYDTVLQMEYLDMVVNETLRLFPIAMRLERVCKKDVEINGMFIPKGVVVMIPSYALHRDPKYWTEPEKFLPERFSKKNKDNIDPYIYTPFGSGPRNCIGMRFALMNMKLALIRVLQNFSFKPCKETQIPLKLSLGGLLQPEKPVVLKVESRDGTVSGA

CC#C[C@]1(O)CC[C@H]2[C@@H]3CCC4=CC(=O)CCC4=C3[C@@H](c3ccc(NC)cc3)C[C@@]21C [metapristone, N-monodemethyl mifepristone]
metapristone remaining (human CYP3A4; 120 min incubation with CYP3A4, absence of inhibitor): 16.3%
metapristone unchanged (human CYP3A4; 120 min incubation with CYP3A4, plus ketoconazole 10 µM): 72.9%
CYP3A4 western blot staining density relative to controls (100%) (CYP3A4; female rats, 22.5 mg/kg/day p.o. for 7 days): 107 ± 13%
CYP3A4 western blot staining density relative to controls (100%) (CYP3A4; female rats, 45 mg/kg/day p.o. for 7 days): 128 ± 12%
CYP3A4 western blot staining density relative to controls (100%) (CYP3A4; male rats, 22.5 mg/kg/day p.o. for 7 days): 115 ± 14%
CYP3A4 western blot staining density relative to controls (100%) (CYP3A4; male rats, 45 mg/kg/day p.o. for 7 days): 153 ± 17%

Reference: PMC5719405, “Sex-related pharmacokinetic differences and mechanisms of metapristone (RU486 metabolite)” (Scientific Reports, 2017)
